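Results reflect a 48-hour exposure of cells in 96-well plates to compound at five concentrations. At the GI50, growth is halved.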 Active and inactive are the calls of the source. Cut-off read from the data, not from the text of the source: active = GI50 up to about 1.1 µM and inactive = higher.
How the values were obtained:
Test in all cases: DTP human tumour cell line panel, 48 h
DMS-114 = tested on: DMS-114
DLD-1 = tested on: DLD-1
KM-20L2 = tested on: KM-20L2
LXFL 529 = tested on: LXFL 529
M19-MEL = tested on: M19-MEL
HOP-18 = tested on: HOP-18
SNB-78 = tested on: SNB-78
XF498 = tested on: XF498
RXF 631 = tested on: RXF 631

| SMILES | GI50 (DMS-114) | GI50 (DLD-1) | GI50 (KM-20L2) | GI50 (LXFL 529) | GI50 (M19-MEL) | GI50 (HOP-18) | GI50 (SNB-78) | GI50 (XF498) | GI50 (RXF 631) |
| --- | --- | --- | --- | --- | --- | --- | --- | --- | --- |
| CN1CCN(CN2C(=O)C3C4C=CC(C3C2=O)C2C3C(=O)N(CN5CCN(C)CC5)C(=O)C3C42)CC1 (stereo unspecified) | 17.9 µM (inactive) | 22.5 µM (inactive) | 25 µM (inactive) | 19.9 µM (inactive) |  |  |  |  |  |
| C[P+](C)(CC(F)(F)F)c1ccccc1 | > 100 µM (inactive) | > 100 µM (inactive) | > 100 µM (inactive) | > 100 µM (inactive) | > 100 µM (inactive) | > 100 µM (inactive) | > 100 µM (inactive) | < 0.01 µM (active) |  |
| O=C1CCCC1NC(=O)C(F)(F)F (stereo unspecified) |  | > 100 µM (inactive) |  | > 100 µM (inactive) | > 100 µM (inactive) |  | > 100 µM (inactive) | > 100 µM (inactive) |  |
| CNC(=O)CN(CC(=O)O)C(=O)NC |  | > 100 µM (inactive) |  | > 100 µM (inactive) | > 100 µM (inactive) |  | > 100 µM (inactive) | > 100 µM (inactive) | > 100 µM (inactive) |
| C#CC1/C(=C\C(=O)OC)CCCC1O (stereo unspecified) | > 100 µM (inactive) | > 100 µM (inactive) | > 100 µM (inactive) | > 100 µM (inactive) | > 100 µM (inactive) | > 100 µM (inactive) | > 100 µM (inactive) | > 100 µM (inactive) |  |
| O=C(O)CN(c1ccccc1)S(=O)(=O)c1ccccc1[N+](=O)[O-] |  | > 100 µM (inactive) | > 100 µM (inactive) | > 100 µM (inactive) | > 100 µM (inactive) | > 100 µM (inactive) |  | > 100 µM (inactive) | > 100 µM (inactive) |
| CCCN(CCCCC(NC(C)=O)C(=O)NCc1ccccc1)C(=O)N(CCCl)N=O (stereo unspecified) | 98.2 µM (inactive) | > 68.9 µM (inactive) | > 100 µM (inactive) | > 100 µM (inactive) | > 82.6 µM (inactive) | > 100 µM (inactive) | > 100 µM (inactive) | > 100 µM (inactive) | > 100 µM (inactive) |
| COc1ccc2n[se]nc2c1 | > 100 µM (inactive) | > 100 µM (inactive) | > 100 µM (inactive) | > 100 µM (inactive) |  | < 0.01 µM (active) | > 100 µM (inactive) | > 100 µM (inactive) | 61.4 µM (inactive) |
| COc1cc(OC)c2c(=O)c3c([N+](=O)[O-])cccc3n(C)c2c1 | > 100 µM (inactive) | > 100 µM (inactive) | > 100 µM (inactive) | > 100 µM (inactive) | > 100 µM (inactive) | > 100 µM (inactive) | > 100 µM (inactive) |  |  |
| Oc1cc(-c2cccc(F)c2)nc2cc3c(cc12)OCO3 | 0.239 µM (active) | 0.252 µM (active) |  | 0.463 µM (active) | 0.272 µM (active) | 5.42 µM (inactive) | 0.343 µM (active) | 0.495 µM (active) |  |
| COc1ccc(C2C(Cl)C(=O)N2n2cnc3ccccc3c2=O)cc1OC (stereo unspecified) | > 100 µM (inactive) |  | > 100 µM (inactive) | > 100 µM (inactive) | > 100 µM (inactive) | 25.3 µM (inactive) | > 100 µM (inactive) | > 100 µM (inactive) |  |
| OC(c1ccccc1)(c1ccccc1)c1cccnc1 | > 100 µM (inactive) | > 100 µM (inactive) | > 100 µM (inactive) |  | > 100 µM (inactive) | > 100 µM (inactive) | > 100 µM (inactive) | > 100 µM (inactive) |  |
| CC1=C(C(=O)NCc2ccccc2)C(c2ccccc2O)C(C(=O)NCc2ccccc2)=C(C)N1 | 18.2 µM (inactive) | 15.1 µM (inactive) | 19.9 µM (inactive) | 15 µM (inactive) | 18.2 µM (inactive) | 23.9 µM (inactive) | 27.9 µM (inactive) | 17 µM (inactive) |  |
